From patent publication US4711889A, “Schistosomicidal acridanone hydrazones” (Hoffman-La Roche Inc., priority 1986, dated 1987) come the findings set out here.

A short description of the data set: acute toxicity, single oral administration to mice. The conditions noted are these: mouse, in vivo. An excerpt:
The following Table contains the results obtained with representative compounds of the invention. In the Table there are given for each of listed compounds, the VD50 in mg/kg p.o. and the LD50 in mg/kg single oral administration to mice.

Counter-ions that a name gives are not always drawn.

In general, LD50 refers to the dose expected to kill half of the subjects tested. Read a low LD50 as greater toxicity. The compound `CN(C)CCCn1c2ccccc2c(=NNc2nccs2)c2ccccc21.Cl.Cl` [10-[3-(dimethylamino)propyl]-9-acridanone (2-thiazolyl)hydrazone dihydrochloride] yielded an LD50 of 312 to 625 mg/kg.

`CCN(CC)CCn1c2ccccc2c(=NN=C2NCCS2)c2ccccc21` [10-[2-(diethylamino)ethyl]-9-acridanone (2-thiazolidinylidene)hydrazone]: the LD50 was in the range of 312 to 625 mg/kg.

For `CN(C)CCn1c2ccccc2c(=NNc2nccs2)c2ccccc21.Cl.Cl` [10-[2-(dimethylamino)ethyl]-9-acridanone (2-thiazolyl)hydrazone dihydrochloride], the LD50 fell in the range of 312 to 625 mg/kg.

On to `c1ccc2c(c1)c(=NN=C1NCCS1)c1ccccc1n2CCN1CCCC1` [10-[2-(1-pyrrolidinyl)ethyl]-9-acridanone (2-thiazolidinylidene)hydrazone], for which the LD50 was 156 to 312 mg/kg.

In the case of `CCN(CC)CCn1c2ccccc2c(=NNc2nccs2)c2ccccc21.Cl.Cl` [10-[2-(diethylamino)ethyl]-9-acridanone (2-thiazolyl)hydrazone dihydrochloride], the LD50 is above 5000 mg/kg.

In the case of `CC(=O)N1CCN(CCn2c3ccccc3c(=NN=C3NCCS3)c3ccccc32)CC1` [10-[2-(4-acetyl-1-piperazinyl)ethyl]-9-acridanone (2-thiazolidinylidene)hydrazone], the LD50 was 1250 to 2500 mg/kg.

Compound `CC(=O)N1CCN(CCn2c3ccccc3c(=NNc3nccs3)c3ccccc32)CC1.Cl.Cl` [10-[2-(4-acetyl-1-piperazinyl)ethyl]-9-acridanone (2-thiazolyl)hydrazone dihydrochloride] came in with an LD50 of 312 to 625 mg/kg.

`Cl.Cl.NCCn1c2ccccc2c(=NNc2nccs2)c2ccccc21` [10-(2-aminoethyl)-9-acridanone 2-thiazolylhydrazone dihydrochloride] returned an LD50 of 156 to 312 mg/kg.

The compound `CN(C)CCn1c2ccccc2c(=NN=C2NCCS2)c2ccccc21` [10-[2-(dimethylamino)ethyl]-9-acridanone (2-thiazolidinylidene)hydrazone] registered an LD50 of 250 to 500 mg/kg.

On to `CN1CCN(CCn2c3ccccc3c(=NNc3nccs3)c3ccccc32)CC1` [10-[2-(4-methyl-1-piperazinyl)ethyl]-9-acridanone (2-thiazolyl)hydrazone. 2.5 HCl], for which the LD50 fell in the range of 625 to 1250 mg/kg.

On to `c1ccc2c(c1)c(=NNc1nccs1)c1ccccc1n2CCN1CCCCC1` [10-[2-(1-piperidinyl)ethyl]-9-acridanone (2-thiazolyl)hydrazone 1.5 HCl], for which the LD50 lay in the range of 312 to 625 mg/kg.

`CN(C)CCCn1c2ccccc2c(=NN=C2NCCS2)c2ccccc21` [10-[3-(dimethylamino)propyl]-9-acridanone (2-thiazolidinylidene)hydrazone]: the LD50 lay in the range of 125 to 250 mg/kg.

Take `CN1CCN(CCn2c3ccccc3c(=NN=C3NCCS3)c3ccccc32)CC1` [10-[2-(4-methyl-1-piperazinyl)ethyl]-9-acridanone (2-thiazolidinylidene)hydrazone]: the LD50 lay in the range of 156 to 312 mg/kg.
